Measurements: patent US20230257396A1, “MACROCYCLES AND THEIR USE” (BLOSSOMHILL THERAPEUTICS, INC., priority 2020, published 2023)

Key:
Assay in all cases: KINOMEscan kinase binding assay (Eurofins/DiscoveRx), % Ctrl
kinases [1] = molecular target: T1, kinases (Homo sapiens, UniProt P00519, Y253F)
T1 construct: purchased Eurofins/DiscoveRx; host or cells: E. coli BL21-derived host (T7 phage display) for most kinases; HEK-293 for the rest
How it was run: (§1)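 Competition binding: DNA- or phage-tagged kinases (T7 phage in E. coli BL21, or HEK-293-expressed) with immobilized biotinylated ligand beads and test compound, 1 h at room temperature. Bead-bound kinase eluted and quantified by qPCR; % Ctrl = (compound − positive control)/(negative control − positive control) ×100 at a single compound concentration.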

kinases [2] = molecular target: T2, kinases (Homo sapiens, UniProt P00533, G719C)
T2 construct: purchased Eurofins/DiscoveRx; host or cells: E. coli BL21-derived host (T7 phage display) for most kinases; HEK-293 for the rest
How it was run: as §1

kinases [3] = molecular target: T3, kinases (Homo sapiens, UniProt P36888, N841I)
T3 construct: purchased Eurofins/DiscoveRx; host or cells: E. coli BL21-derived host (T7 phage display) for most kinases; HEK-293 for the rest
T3 sequence (P36888 27-993 N841I): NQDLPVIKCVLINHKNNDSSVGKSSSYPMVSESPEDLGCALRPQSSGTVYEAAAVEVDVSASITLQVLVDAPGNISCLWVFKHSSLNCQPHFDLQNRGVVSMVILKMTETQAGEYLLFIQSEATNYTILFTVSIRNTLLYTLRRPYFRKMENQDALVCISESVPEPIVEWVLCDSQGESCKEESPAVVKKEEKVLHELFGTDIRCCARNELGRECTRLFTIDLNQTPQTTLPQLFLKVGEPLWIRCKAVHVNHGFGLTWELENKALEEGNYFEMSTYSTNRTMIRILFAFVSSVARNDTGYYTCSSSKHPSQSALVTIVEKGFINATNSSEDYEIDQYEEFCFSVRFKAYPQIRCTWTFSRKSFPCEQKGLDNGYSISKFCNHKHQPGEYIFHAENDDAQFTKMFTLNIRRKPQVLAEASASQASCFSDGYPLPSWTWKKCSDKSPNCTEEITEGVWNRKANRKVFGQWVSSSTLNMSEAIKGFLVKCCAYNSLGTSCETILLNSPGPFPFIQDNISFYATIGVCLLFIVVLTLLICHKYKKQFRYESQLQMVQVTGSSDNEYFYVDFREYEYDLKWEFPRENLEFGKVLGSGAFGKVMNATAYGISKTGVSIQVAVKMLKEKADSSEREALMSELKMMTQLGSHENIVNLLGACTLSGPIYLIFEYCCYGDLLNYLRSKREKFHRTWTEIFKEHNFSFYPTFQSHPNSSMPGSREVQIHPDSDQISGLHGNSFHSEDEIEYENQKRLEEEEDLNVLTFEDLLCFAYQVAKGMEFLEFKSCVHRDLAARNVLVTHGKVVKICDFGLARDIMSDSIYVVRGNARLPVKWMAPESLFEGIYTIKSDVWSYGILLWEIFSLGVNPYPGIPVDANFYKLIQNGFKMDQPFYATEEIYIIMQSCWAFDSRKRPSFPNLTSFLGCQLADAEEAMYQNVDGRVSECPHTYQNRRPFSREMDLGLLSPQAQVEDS
How it was run: as §1

kinases [4] = molecular target: T4, kinases (Homo sapiens, UniProt P00519)
T4 construct: purchased Eurofins/DiscoveRx; host or cells: E. coli BL21-derived host (T7 phage display) for most kinases; HEK-293 for the rest
How it was run: as §1

kinases [5] = molecular target: T5, kinases (Homo sapiens, UniProt P35916)
T5 construct: purchased Eurofins/DiscoveRx; host or cells: E. coli BL21-derived host (T7 phage display) for most kinases; HEK-293 for the rest
T5 sequence (P35916 25-1363): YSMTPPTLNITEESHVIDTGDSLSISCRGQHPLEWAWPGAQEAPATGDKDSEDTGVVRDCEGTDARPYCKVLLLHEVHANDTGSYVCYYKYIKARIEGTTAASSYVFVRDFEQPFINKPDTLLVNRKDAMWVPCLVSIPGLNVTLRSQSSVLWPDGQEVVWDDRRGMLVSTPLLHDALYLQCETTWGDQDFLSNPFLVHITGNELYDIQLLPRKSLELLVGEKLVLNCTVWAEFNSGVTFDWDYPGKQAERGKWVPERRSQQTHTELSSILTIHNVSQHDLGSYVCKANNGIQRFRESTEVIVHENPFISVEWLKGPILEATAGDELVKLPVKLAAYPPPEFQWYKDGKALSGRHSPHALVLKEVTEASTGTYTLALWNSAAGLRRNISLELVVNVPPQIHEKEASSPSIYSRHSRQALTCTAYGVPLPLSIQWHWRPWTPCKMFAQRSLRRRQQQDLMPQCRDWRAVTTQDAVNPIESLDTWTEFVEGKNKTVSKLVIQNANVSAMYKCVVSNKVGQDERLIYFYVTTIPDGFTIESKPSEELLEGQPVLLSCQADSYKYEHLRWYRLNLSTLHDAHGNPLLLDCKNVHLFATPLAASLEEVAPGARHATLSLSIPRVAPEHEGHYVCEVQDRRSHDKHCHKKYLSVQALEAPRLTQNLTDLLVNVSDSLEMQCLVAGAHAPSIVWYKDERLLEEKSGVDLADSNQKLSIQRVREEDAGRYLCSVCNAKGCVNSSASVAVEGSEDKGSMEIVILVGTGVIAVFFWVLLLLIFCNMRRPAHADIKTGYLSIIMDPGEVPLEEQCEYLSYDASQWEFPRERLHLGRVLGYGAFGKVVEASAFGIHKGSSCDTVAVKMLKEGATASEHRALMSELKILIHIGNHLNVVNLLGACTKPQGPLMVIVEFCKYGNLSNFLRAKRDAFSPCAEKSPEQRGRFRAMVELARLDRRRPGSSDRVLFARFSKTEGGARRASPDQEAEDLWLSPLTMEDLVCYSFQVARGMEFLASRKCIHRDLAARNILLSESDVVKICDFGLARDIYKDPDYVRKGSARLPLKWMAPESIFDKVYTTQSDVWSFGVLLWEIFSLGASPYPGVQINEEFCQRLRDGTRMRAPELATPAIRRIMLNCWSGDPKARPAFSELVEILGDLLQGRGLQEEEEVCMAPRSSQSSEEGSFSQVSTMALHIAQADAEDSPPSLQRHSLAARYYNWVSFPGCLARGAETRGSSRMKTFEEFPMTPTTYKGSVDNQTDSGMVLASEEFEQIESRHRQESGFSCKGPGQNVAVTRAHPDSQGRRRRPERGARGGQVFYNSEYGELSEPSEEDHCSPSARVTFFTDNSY
How it was run: as §1

kinases [6] = molecular target: T6, kinases (Homo sapiens, UniProt P00533, L861Q)
T6 construct: purchased Eurofins/DiscoveRx; host or cells: E. coli BL21-derived host (T7 phage display) for most kinases; HEK-293 for the rest
How it was run: as §1

[7] = 1 μM; ABL1(Y253F)-phosphorylated
[8] = target ABL1(Y253F)-phosphorylated; 1 μM
[9] = target ABL1-nonphosphorylated; 1 μM
[10] = target ABL1-phosphorylated; 1 μM

Structure (SMILES) | % Ctrl, ABL1(Y253F)-phosphorylated (kinases [1]; [7]) [% Ctrl] | % Ctrl, EGFR(G719C) (kinases [2]; 1 μM; EGFR(G719C)) [% Ctrl] | % Ctrl, FLT3(N841I) (kinases [3]; 1 μM; FLT3(N841I)) [% Ctrl] | % Ctrl, ABL1-nonphosphorylated (kinases [4]; 1 μM; ABL1-nonphosphorylated) [% Ctrl] | % Ctrl, ABL1-phosphorylated (kinases [4]; 1 μM; ABL1-phosphorylated) [% Ctrl] | % Ctrl, FLT4 (kinases [5]; 1 μM; FLT4) [% Ctrl] | % Ctrl, EGFR(L861Q) (kinases [6]; 1 μM; EGFR(L861Q)) [% Ctrl] | also measured
Cc1cc2c([nH]1)/C=C1\C(=O)Nc3ccc(cc31)-c1ccnn1CCOCCNC2=O [Ex.39, [19a(20)Z]-2-methyl-6,7,9,10-tetrahydro-1H-15,17-(ethanediylidene)pyrazolo[1,5-d]dipyrrolo[3,4-h:2′,3′-k][1,4,14]oxadiazacyclohexadecine-4,19(5H,18H)-dione] | 98 | 70 | 83 | 73 | 78 | 98 | 68 | –
Cc1cc2c([nH]1)/C=C1\C(=O)Nc3cnc(cc31)-c1cn[nH]c1CNCCN(C)C2=O [Ex. 55, [3a(4)Z]-6,9-dimethyl-9,10,11,12,13,14-hexahydro-17,1-(azenometheno)pyrazolo[4,3-m]dipyrrolo[3,2-f:3′,4′-i][1,4]diazacyclopentadecine-3,8(2,5H)-dione] | – | – | – | – | – | – | – | % Ctrl, ABL1(Y253F)-phosphorylated (kinases [1]; [8]): 3.1 % Ctrl; % Ctrl, EGFR(G719C) (kinases [2]; target EGFR(G719C); 1 μM): 68 % Ctrl; % Ctrl, FLT3(N841I) (kinases [3]; target FLT3(N841I); 1 μM): 0 % Ctrl; % Ctrl, ABL1-nonphosphorylated (kinases [4]; [9]): 10 % Ctrl; % Ctrl, ABL1-phosphorylated (kinases [4]; [10]): 6 % Ctrl; % Ctrl, FLT4 (kinases [5]; target FLT4; 1 μM): 31 % Ctrl; % Ctrl, EGFR(L861Q) (kinases [6]; target EGFR(L861Q); 1 μM): 58 % Ctrl
Cc1cc2c([nH]1)/C=C1\C(=O)Nc3cc(Cl)c(cc31)OCCO[C@@H](C(=O)N[C@@H]1CCNC1)CN(C)C2=O [Ex. 136, [7R,16a(17)Z]-19-chloro-2,5-dimethyl-4,16-dioxo-N-[(3R)-pyrrolidin-3-yl]-4,5,6,7,9,10,15,16-octahydro-1H-12,14-(ethanediylidene)dipyrrolo[3,2-i:3′,4′-l][1,4,7]dioxazacyclopentadecine-7-carboxamide] | 16 | 90 | 14 | 36 | 25 | 100 | 95 | –
Cc1cc2c([nH]1)/C=C1\C(=O)Nc3cc(Cl)c(cc31)OCCOCCN(C)C2=O [Ex. 131, [16a(17)Z]-19-chloro-2,5-dimethyl-6,7,9,10-tetrahydro-1H-12,14-(ethanediylidene)dipyrrolo[3,2-i:3′,4′-l][1,4,7]dioxazacyclopentadecine-4,16(5H,15H)-dione] | 0 | 93 | 0 | 0 | 0 | 0 | 78 | –
Cc1cc2c([nH]1)/C=C1\C(=O)Nc3cnc(cc31)-c1cnn(C)c1COCCNC2=O [Ex.123, [3a(4)Z]-6,14-dimethyl-10,11,13,14-tetrahydro-2H-17,1-(azenometheno)pyrazolo[4,3-m]dipyrrolo[3,2-f:3′,4′-i][1,4]oxazacyclopentadecine-3,8(5H,9H)-dione] | 100 | 90 | 95 | 83 | 100 | 94 | 100 | –
CNC(=O)[C@H]1CN(C)C(=O)c2cc(C)[nH]c2/C=C2\C(=O)Nc3cc(Cl)c(cc32)OCCO1 [Ex. 135, [7R,16a(17)Z]-19-chloro-N,2,5-trimethyl-4,16-dioxo-4,5,6,7,9,10,15,16-octahydro-1H-12,14-(ethanediylidene)dipyrrolo[3,2-i:3′,4′-l][1,4,7]dioxazacyclopentadecine-7-carboxamide] | 55 | 82 | 41 | 33 | 58 | 100 | 86 | –
Cc1cc2c([nH]1)/C=C1\C(=O)Nc3ccc(cc31)-c1c(noc1C)COCCN(C)C2=O [Ex. 128, [3a(4)Z]-6,9,16-trimethyl-1,11-dihydro-2H,13H-1,17-(ethanediylidene)[1,4]oxazolo[4,3-m]dipyrrolo[3,2-f:3′,4′-i][1,4]oxazacyclopentadecine-3,8(5H,9H)-dione] | 49 | 97 | 36 | 60 | 51 | 45 | 100 | –
Cc1cc2c([nH]1)/C=C1\C(=O)Nc3ccc(cc31)-c1ccnn1CCNCCNC2=O [Ex. 43, [19a(20)Z]-2-methyl-5,6,7,8,9,10-hexahydro-15,17-(ethanediylidene)pyrazolo[1,5-g]dipyrrolo[3,4-k:2′,3′-n][1,4,7]triazacyclohexadecine-4,19(1H,18H)-dione] | 80 | 92 | 98 | 53 | 90 | 91 | 90 | –
Cc1cc2c([nH]1)/C=C1\C(=O)Nc3ccc(cc31)O[C@@H](C)COCCN(C)C2=O [Ex. 92, [10S,16a(17)Z]-2,5,10-trimethyl-6,7,9,10-tetrahydro-1H-12,14-(ethanediylidene)dipyrrolo[3,2-i:3′,4′-l][1,4,7]dioxazacyclopentadecine-4,16(5H,15H)-dione] | 54 | 100 | 20 | 0 | 25 | 75 | 100 | –
Cc1cc2c([nH]1)/C=C1\C(=O)Nc3ccc(cc31)-c1ccnn1CCOCCN(C)C2=O [Ex. 41, [19a(20)Z]-2,5-dimethyl-6,7,9,10-tetrahydro-1H-15,17-(ethanediylidene)pyrazolo[1,5-d]dipyrrolo[3,4-h:2′,3′-k][1,4,14]oxadiazacyclohexadecine-4,19(5H,18H)-dione] | 49 | 88 | 0 | 7.1 | 56 | 62 | 91 | –
Cc1cc2c([nH]1)/C=C1\C(=O)Nc3cnc(cc31)-c1cnn(C)c1CN(C)CCN(C)C2=O [Ex. 172, [3a(4)Z]-6,9,12,14-tetramethyl-9,10,11,12,13,14-hexahydro-17,1-(azenometheno)pyrazolo[4,3-m]dipyrrolo[3,2-f:3′,4′-i][1,4]diazacyclopentadecine-3,8(2H,5H)-dione] | – | – | – | – | – | – | – | % Ctrl, ABL1(Y253F)-phosphorylated (kinases [1]; 1 μM; target ABL1(Y253F)-phosphorylated): 0.2 % Ctrl; % Ctrl, EGFR(G719C) (kinases [2]; 1 μM; target EGFR(G719C)): 100 % Ctrl; % Ctrl, FLT3(N841I) (kinases [3]; 1 μM; target FLT3(N841I)): 0 % Ctrl; % Ctrl, ABL1-nonphosphorylated (kinases [4]; 1 μM; target ABL1-nonphosphorylated): 0.6 % Ctrl; % Ctrl, ABL1-phosphorylated (kinases [4]; 1 μM; target ABL1-phosphorylated): 1.4 % Ctrl; % Ctrl, FLT4 (kinases [5]; 1 μM; target FLT4): 1.7 % Ctrl; % Ctrl, EGFR(L861Q) (kinases [6]; 1 μM; target EGFR(L861Q)): 75 % Ctrl
Cc1cc2c([nH]1)/C=C1\C(=O)Nc3ccc(cc31)-c1c(noc1C)CNCCN(C)C2=O [Ex. 139, [3a(4)Z]-6,9,16-trimethyl-10,11,12,13-tetrahydro-2H-1,17-(ethanediylidene)[1,2]oxazolo[4,3-m]dipyrrolo[3,2-f:3′,4′-i][1,4]diazacyclopentadecine-3,8(5H,9H)-dione] | – | – | – | – | – | – | – | % Ctrl, ABL1(Y253F)-phosphorylated (kinases [1]; [8]): 11 % Ctrl; % Ctrl, EGFR(G719C) (kinases [2]; target EGFR(G719C); 1 μM): 82 % Ctrl; % Ctrl, FLT3(N841I) (kinases [3]; target FLT3(N841I); 1 μM): 12 % Ctrl; % Ctrl, ABL1-nonphosphorylated (kinases [4]; [9]): 17 % Ctrl; % Ctrl, ABL1-phosphorylated (kinases [4]; [10]): 9.8 % Ctrl; % Ctrl, FLT4 (kinases [5]; target FLT4; 1 μM): 23 % Ctrl; % Ctrl, EGFR(L861Q) (kinases [6]; target EGFR(L861Q); 1 μM): 88 % Ctrl
